Results: patent US4612311A, “1,2,4-benzothiadiazine oxide derivatives” (Warner-Lambert Company, priority 1984, dated 1986)

Tests used:
[1] = LD50; set-up: species or system male mice (NMRI); settings: mouse, in vivo; oral; ">": no effect up to this highest examined dosage
Protocol: (§1) Experimental animals used were male mice (NMRI, origin: Ivanovas, Kissleg) of weight 18 to 25 g. The animals were allowed food and water ad lib.. but, according to the test, they were fasted for two to 16 hours before the beginning of the test with water allowed ad lib.
(§2) The substances under test were applied orally by means of a stomach tube in a 0.8% methocel suspension 30 minutes before the start of the test.

[2] = test system: benzodiazepine rec.; assay: GABA-Ratio, benzodiazepine receptor binding; settings: in words
[3] = Ataxia threshold; type: in vivo, male mice (NMRI); settings: oral, ">": no effect up to this highest examined dosage
Protocol: as §1, §2

[4] = molecular target: benzodiazepine rec.; assay: Receptor binding: benzodiazepine rec.
[5] = Motility test (spontaneous motility); type: in vivo, male mice (NMRI); settings: 30 min
Protocol: as §1, §2
The spontaneous motility was measured simultaneously for a test group of five animals each for 30 minutes in two opaque cages (length 50 cm, width 25 cm, height 30 cm) using three infrared light barriers in each case. The sum of the impulses registered for the control group during this period was taken as 100% and the deviation in the case of the test group from this value was calculated in percent.

[6] = Effect on duration of hexobarbital anesthesia (hypnotic activity); type: in vivo, male mice (NMRI); settings: hexobarbital sodium 70 mg/kg i.v.
Protocol: as §1, §2
Seventy mg/kg (10 ml/kg body weight) of hexobarbital sodium were injected into a tail vein within a period of 15 seconds. Ten animals were used per dose. The criterion for the end of anesthesia was the moment when the animal roused itself from lying on its side. The average duration of anesthesia in the control animals was taken as 100 and the increases measured were calculated as a percentage of this value.

[7] = Punished exploratory behavior (4 plate test), anxiolytic activity; type: in vivo, male mice (NMRI); settings: for Anxiolytic Activity (punished exploration), increase: 30 min before test, control = 100%
Protocol: as §1, §2
(§3) The model for testing for anxiolytic activity is based on the experimental creation of a conflict in the animals by counteracting the natural exploratory tendencies of the animals with an anxiety-inducing stimulus (aversive foot shock, aversive illumination).
The test box has a metal base consisting of four rectangles of equal size. After placing the animal in the box it can freely explore for 15 seconds. Then every transition from one metal plate of the base to another is punished by a mild foot shock (1.5 mA for 0.5 seconds). The number of tolerated foot shocks within one minute is the measure of the anxiolytic activity of the substance. The average number of accepted foot shock by the control animals was taken as 100%. Ten animals were examined per dose.

[8] = Unpunished exploratory behavior (light-dark preference), anxiolytic activity; type: in vivo, male mice (NMRI); settings: 30 min before test, control = 100%
Protocol: as §1, §2, §3
The testing equipment consists of a larger, brightly illuminated compartment and a smaller dark compartment. The animal is placed in the dark compartment and observed for ten minutes. The number of transitions between the compartments and the time spent in the two compartments are measured. The average number of transitions between the compartments of the control animals is taken as 100%. Ten animals were tested per dose.

| SMILES | LD50 [1] [mg/kg] | GABA-Ratio, agonist character [2] | Ataxia Threshold [3] [mg/kg] | Kd [4] [nM] | Anxiolytic Activity (punished exploration), increase ([7]; 15 mg/kg oral) [%] | Hypnotic Activity (increase in sleep time) ([6]; 25 mg/kg oral) [%] | also measured |
| --- | --- | --- | --- | --- | --- | --- | --- |
| O=S1(c2ccccc2)=Nc2ncnn2-c2ccc(Cl)cc21 (racemic) [Example 4a, (±)-7-Chloro-5-phenyl-[1,2,4]triazolo[5,1-c][1,2,4]benzothiadiazine-5-oxide] | > 400 | part. ago. | > 100 | 3500 | 45 | – | Spontaneous Motility (effect in words) ([5]; 100 mg/kg oral): no effect; Hypnotic Activity (increase in sleep time) ([6]; 100 mg/kg oral): 224% |
| Cc1nc2n(n1)-c1ccc(Cl)cc1S(=O)(c1ccccc1)=N2 (racemic) [Example 1a, (±)-7-Chloro-2-methyl-5-phenyl-[1,2,4]triazolo[5,1-c][1,2,4]benzothiadizine-5-oxide] | 1600 | part. agonist | > 100 | 1500 | – | 123 | Hypnotic Activity (increase in sleep time) ([6]; 50 mg/kg oral): 175%; Anxiolytic activity (in words) ([7]; 7.5 to 45 mg/kg, compared with diazepam 1 to 4 mg/kg): comparable with that of diazapam (1 to 4 mg/kg) |
| Cc1nc2n(n1)-c1ccc(Cl)cc1S(=O)(c1ccccc1Cl)=N2 (racemic) [Example 2c, (±)-7-Chloro-2-methyl-5-(2-chlorophenyl)[1,2,4]triazolo[5,1-c][1,2,4]benzothiadiazine-5-oxide] | > 400 | part. ago. | > 100 | 20 | – | – | Spontaneous Motility, increase ([5]; 30 mg/kg oral, control = 100%): 6%; Hypnotic Activity (increase in sleep time) ([6]; 30 mg/kg oral): 96%; Anxiolytic Activity (punished exploration), increase ([7]; 30 mg/kg oral): 66% |
| CN1C(=O)CN=C(c2ccccc2)c2cc(Cl)ccc21 [Diazepam, reference compound] | – | – | 5 | 64 | – | – | Anxiolytic Activity (unpunished exploration), increase ([8]; 2 mg/kg oral): 43%; Anxiolytic Activity (unpunished exploration), decrease ([8]; 5 mg/kg oral): 33%; Ataxia Threshold ([3]; listed as diazepam): approximately 5 mg/kg; Spontaneous Motility, decrease ([5]; 5 mg/kg oral, control = 100%): 67%; Hypnotic Activity (increase in sleep time) ([6]; 2 mg/kg oral): 286%; Hypnotic Activity (increase in sleep time) ([6]; 4 mg/kg oral): 320% |
| Cc1nc2n(n1)-c1ccc(Cl)cc1S(=O)(c1cccc(Cl)c1)=N2 (racemic) [Example 1c, (±)-7-Chloro-5-(3-chlorophenyl)-2-methyl-[1,2,4]triazolo[5,1-c][1,2,4]benzothiadiazine-5-oxide] | > 400 | – | > 100 | 10000 | 35 | – | Spontaneous Motility, increase ([5]; 15 mg/kg oral, control = 100%): 12%; Hypnotic Activity (increase in sleep time) ([6]; 15 mg/kg oral): 6% |
| O=S1(c2ccccc2)=Nc2ncnn2-c2cc(Cl)c(Br)cc21 (racemic) [Example 4b, (±)-7-Bromo-8-chloro-5-phenyl-[1,2,4]triazolo[5,1-c][1,2,4]benzothiadiazine-5-oxide] | > 400 | – | > 400 | 100000 | – | 21 | Spontaneous Motility, increase ([5]; 12.5 mg/kg oral, control = 100%): 83%; Anxiolytic Activity (punished exploration), increase ([7]; 12.5 mg/kg oral): 34% |
